Patent publication US20090286738A1, “Gene Regulation” (ST. GEORGE'S ENTERPRISES LIMITED, priority 2005, published 2009)
Entries after “also recorded” stand apart in the source; their conditions may differ. Values belong to the compound of their own block, whether it stands above or below them.

What was measured:
B16F10 (Mouse melanoma) = assay type: cell-based
Source text: (§1) FIG. 5(a): MTT assays to determine the IC50 of the control and hexapeptide-containing peptides.
(§2) These include prostate (Miller, G. J. et al. Cancer Res. 63, 5879-5888 (2003)), renal (Cillo, C. et al. Int. J. Cancer. 51, 892-897 (1992)), bladder (Cantile, M., et al. Oncogene 22, 6462-6468 (2003)), lung (Abe, M. et al. Oncol. Rep. 15, 797-802 (2006)) and ovarian (Cheng, W., et al. Nat. Med. 11, 531-537 (2005)) cancer. In order to determine whether HXArg9 could also block the growth of cells derived from these cancers, we obtained the IC50 using an MTT assay for representative cell lines of each (Table 1).

[1] = system: A549 (Human non-small cell lung carcinoma); assay type: cell-based
Source text: as §1, §2

[2] = system: A498 (Human renal cancer); assay type: cell-based
Source text: as §1, §2

[3] = system: SK-OV3 (Human ovarian cancer); assay type: cell-based
Source text: as §1, §2

[4] = system: LNCaP (Human prostate cancer); assay type: cell-based
Source text: as §1, §2

[5] = system: J82 (Human bladder cancer); assay type: cell-based
Source text: as §1, §2

[6] = Stability of peptides in human plasma at 37° C., SDS-PAGE; assay type: in vitro ADME; conditions: 1 mM peptide
Description: Peptides were incubated in human serum for the times shown and then visualised on a Coomassie brilliant blue stained gel. The arrow heads indicate the position of intact peptide. Standard=peptide only in this lane as a marker.
The stability of HXArg9(2D) and CX2Arg9(2D) was assessed by incubation each with human plasma at 37° C. and the amount of peptide remaining after different amounts of time was assessed by SDS-PAGE. Each peptide was added to freshly prepared human plasma to a final concentration of 1 mM in a total volume of 40 μl. Samples were incubated at 37° C. and reactions were stopped by adding 60 μl of water and 0.9 ml of protein gel loading buffer (BioRad, USA) containing 1% 2-mercaptoethanol, and heating to 95° C. for four minutes. 2 μl of each sample was run on a 22% acrylamide gel. […] This compared with a half life of approximately 40 minutes for the L isomer form HXArg9.

[7] = system: malignant cell lines (B16 mouse melanoma, LNCAP human prostate cancer, K562); assay: Activity of peptides on different malignant cell lines, living and dead cells after 3 hours (FIGS. 6 to 8); assay type: cell-based; conditions: for effect on living/dead cells, cell proliferation: 60 μM or 6 μM, 3 hour exposures, melanoma, prostate cancer and leukaemia cells
Description: (§3) The peptides as indicated were applied to the cells at a concentration of 60 μM (FIG. 6A) or 6 μM (FIG. 6B). In both experiments the HXArg9, CX1Arg9 and CX2Arg9 peptides used were the (2D) variant peptides in which the N- and C-terminal amino acids are in the D conformation and all remaining amino acids are in the L conformation. The number of living and dead cells were assessed after 3 hours. Black bars=% or number of cells dead. White bars=% or number of cells alive.
as §3, with “7A)” for “6A)”, “7B).” for “6B).”
as §3, with “μM. HXArg9(2D) is” for “μM (FIG. 6A) or 6 μM (FIG. 6B). In both experiments”, “variant form of HXArg9 in which the N-terminal and C-terminal amino acids are in the D conformation and the remaining amino acids are in the L conformation. HXArg9 consists of only L-conformation amino acids. The” for “HXArg9,”, “bars=%” for “bars=% or number of”
(§4) Cell lines were seeded at 4×10^4 cells/ml in liquid culture system made of RPMI-1640 medium (Life Technologies, UK) supplemented with Foetal Calf Serum (10% Sigma Aldrich) and penicillin/streptomycin (1%, Sigma) and at least in duplicate. When required the test peptide was added to the medium. Cell lines were cultured for up to 7 days at 37° C., 5% CO2 in humidified atmosphere. Cultured cells were then assessed for cell viability/enumeration using trypan blue exclusion (Sigma Aldrich).
The activity of the peptides described above was tested on a number of different malignant cell lines using a similar assay to that described previously.

[8] = system: malignant cell lines (B16 mouse melanoma, LNCAP human prostate cancer, K562); conditions: time scale in which HXP4 shows an effect; cited from earlier work
[9] = system: B16 murine melanoma cells; assay: Living and dead B16 cells after 3 hours (FIGS. 2A, 9); assay type: cell-based; conditions: B16 cells, FIGS. 2 and 3
Description: In FIG. 2A the peptides as indicated were applied to the cells at a concentration of 60 μM. The number of living and dead cells were assessed after 3 hours. Black bars=number of cells dead. White bars=number of cells alive.
as §3
The HXArg9 peptide used was the (2D) variant peptide in which the N- and C-terminal amino acids are in the D conformation and all remaining amino acids are in the L conformation. HXArg9 was applied to the cells at a variety of concentrations (μM), and the number of dead and living cells was assessed after 3 hours. Black bars=% cells dead. White bars=% cells alive.
as §4

[10] = system: B16 murine melanoma cells; assay: B16 cell growth over a 4 day period (FIGS. 2B, 3); assay type: cell-based; conditions: 200 μg/ml for 4 hours, counted day 4
Description: In FIG. 2B the peptides as indicated were applied to the cells at a concentration of 200 μg/ml for 4 hours. The number of cells present was assessed on the day of treatment (white bars) and on day 4 (diagonal stripes).
A=untreated; B=CXP4; C=HXP4; D=HXP4(3D)2; E=HXP4(3D)3; F=HXP4(3D)4.
as §4

B16 cells = assay: Apoptosis of B16 cells (microscopy, Hoechst, Annexin V FACS); assay type: cell-based, murine; conditions: in combination with HXArg9(2D)
Description: FIG. 5(b): Light micrographs of B16 cells treated with 60 μM HXArg9(2D) (HXR9) or CX2Arg9(2D) (CXR9) for two hours. Scale bar=40 μm.
FIG. 5(c) Transmission electron micrographs of B16 cells treated with 60 μM HXR9 or CXR9 for two hours. Scale bar=[…].
FIG. 5(d) FACS sorting of B16 cells with Annexin. Cells were treated as indicated above each plot. The lower left hand quadrant represents normal, viable cells. The bottom and top right hand quadrants represent cells in early and late apoptosis, respectively, and the top left hand quadrant represents cells in necrosis.
Apoptotic morphology was determined using scanning electron microscopy and fluorescence microscopy. Changes in nuclear morphology were assessed by fixing B-16 cytospins with ice-cold methanol at room temperature for five minutes. The fixed cells were stained with Hoechst 33258 (2 μg/ml) (Sigma) and mounted using VECTASHIELD® mounting medium (Vector) and analyzed by fluorescence microscopy (Nikon Eclipse TE 2000-S).
An additional sign of apoptosis is the appearance of phosphatidylserine in the cell membrane (Koopman, G. et al. Blood 84, 1415-1420 (1994)). This can be detected by fluorescencently labeled Annexin V protein and cell sorting using FACS.
This is a specific inhibitor of the caspase proteases, which are key components of the apotopic pathway (Zhu, H., et al. FEBS Lett. 374, 303-308 (1995)).

IC50 (B16F10 (Mouse melanoma)): 200 µM
IC50 [1]: 240 µM
IC50 [2]: 280 µM
IC50 [3]: 270 µM
IC50 [4]: 220 µM
IC50 [5]: 290 µM
half-life at 1 mM [6]: ~720 min
Compound: CSCC[C@@H](N)C(=O)N[C@@H](CS)C(=O)N[C@@H](C)C(=O)N[C@@H](C)C(=O)NCC(=O)N[C@@H](CC(=O)O)C(=O)N[C@@H](CC(=O)O)C(=O)N[C@@H](C)C(=O)N[C@@H](CC(C)C)C(=O)N[C@@H](CCCNC(=N)N)C(=O)N[C@@H](CCCNC(=N)N)C(=O)N[C@@H](CCCNC(=N)N)C(=O)N[C@@H](CCCNC(=N)N)C(=O)N[C@@H](CCCNC(=N)N)C(=O)N[C@@H](CCCNC(=N)N)C(=O)N[C@@H](CCCNC(=N)N)C(=O)N[C@@H](CCCNC(=N)N)C(=O)N[C@H](CCCNC(=N)N)C(=O)O [CX2Arg9(2D), MCAAGDDALRRRRRRRRR, reference compound]

IC50 (B16F10 (Mouse melanoma)): 20 µM
IC50 [1]: 19 µM
IC50 [2]: 24 µM
IC50 [3]: 22 µM
IC50 [4]: 21 µM
IC50 [5]: 22 µM
half-life at 1 mM [6]: ~720 min
Compound: CSCC[C@H](NC(=O)[C@H](Cc1c[nH]c2ccccc12)NC(=O)[C@@H]1CCCN1C(=O)[C@H](Cc1ccc(O)cc1)NC(=O)[C@H](N)Cc1c[nH]c2ccccc12)C(=O)N[C@@H](CCCCN)C(=O)N[C@@H](CCCCN)C(=O)N[C@@H](Cc1c[nH]cn1)C(=O)N[C@@H](Cc1c[nH]cn1)C(=O)N[C@@H](CCCNC(=N)N)C(=O)N[C@@H](CCCNC(=N)N)C(=O)N[C@@H](CCCNC(=N)N)C(=O)N[C@@H](CCCNC(=N)N)C(=O)N[C@@H](CCCNC(=N)N)C(=O)N[C@@H](CCCNC(=N)N)C(=O)N[C@@H](CCCNC(=N)N)C(=O)N[C@@H](CCCNC(=N)N)C(=O)N[C@H](CCCNC(=N)N)C(=O)O [HXArg9(2D), WYPWMKKHHRRRRRRRRR]

Compound: MCAAGDDALRRRRRRRRR [CX2Arg9, more extensively changed version of the control peptide CX1Arg9, reference compound]
effect on living/dead cells, cell proliferation [7]: no effect on cell proliferation

Compound: WCPWLDRHGRQIKIWFQNRRMKWKK [CXP4]
effect in a similar assay, previously shown [8]: ineffective

Compound: WCPWLDRHGRRRRRRRRR [CX1Arg9, control peptide based on HXArg9 with amino acid substitutions]
effect on living/dead cells, cell proliferation [7]: some activity

Compound: WYPWMKKHHRQIKIWFQNRRMKWKK [HXP4(3D)1]
activity of D-isomer variants of HXP4 [9]: slightly higher activity than the other 3D isomers

Compound: WYPWMKKHHRQIKIWFQNRRMKWKK [HXP4]
effect on living/dead cells, cell proliferation [7]: no effect
time required to achieve the same response ([7]; compared with 3 hour exposures for HXArg9): 4 days
cell growth over a 4 day period [10]: significantly reduced cell growth

Compound: Z-VAD
cell death / apoptosis on co-treatment with HXArg9(2D) (B16 cells): significant reduction in cell death; also recorded: significant reduction in the number of cells undergoing apoptosis
